Here are results for twelve molecules from patent publication US8497270B2, “Macrocyclic integrase inhibitors” (Elanco Animal Health Ireland Limited, priority 2009, dated 2013).

pEC50, pIC50: −log10 of the molar value. Where two headings read alike, the source gives them in different places.

One data set concerns HIV-1 IIIB. Put plainly: Assay 1: inhibitory activity on HIV replication, wild type (MT4-LTR-EGFP cells). In kind it is cell-based. To be noted: Human immunodeficiency virus 1, 72 h, 3 days, EGFP fluorescence. The source says: (§1) Assay 1—Inhibitory Activity on HIV Replication Wild Type, N155H Mutant, and Q148R Mutant
(§2) MT4-LTR-enhanced green fluorescent protein (EGFP) cells were obtained by transfecting MT4 cells with a selectable construct encompassing the coding sequences for the HIV LTR as a promoter for the expression of EGFP and subsequent selection of permanently transfected cells. MT4-cytomegalovirus (CMV)-EGFP cells were obtained by selection for permanently transformed MT4 cells with a CMV-EGFP reporter gene. Cell lines were maintained in RPMI 1640 medium supplemented with 10% heat-inactivated fetal calf serum, 2 mM L-glutamine, 0.1% NaHCO3, and antibiotics (0.02% gentamicin and 0.8% G418) and incubated in a humidified incubator with a 5% CO2 atmosphere at 37° C.
(§3) The antiviral activity of different inhibitors was determined in a cell-based HIV-1 replication assay. MT4-LTR-EGFP cells (150,000 cells/ml) were infected with HIV-1 (IIIB or site-directed mutant strains N155H or Q148R; multiplicity of infection [MOI] of 0.0025) in the presence or absence of inhibitor. After 3 days of incubation, the inhibition of HIV replication was quantified by measuring EGFP fluorescence, and expressed as the inhibitor concentration required for 50% inhibition of HIV-1 replication in cell culture (IIIB EC50—see Table 1).

The test system of data set [1] is HIV-1 site-directed mutant strain N155H. As to the kind of experiment: Assay 1: inhibitory activity on HIV replication, N155H mutant (MT4-LTR-EGFP cells). The data set is classed as cell-based. As to conditions: Human immunodeficiency virus 1, 72 h, read-out: N155H EC50.
Source text: as §1, §2
(§4) N155H and Q148R mutant Integrase coding sequences were constructed in the pUC19-5′HXB2D vector (XbaI-SalI fragment of pHXB2D), containing the HIV-1 clone HXB2D IN coding sequence, by using a QuikChange site-directed mutagenesis kit (Stratagene, La Jolla, Calif.) and high-performance liquid chromatography-purified primers (Genset Oligos, La Jolla, Calif.). Altered plasmid sequences were confirmed by dideoxyribose sequencing.
(§5) For generation of site directed mutant (SDM) virus stocks, MT4 cells were subcultured at a density of 250,000 cells/ml on the day before transfection. Cells were pelleted and resuspended in phosphate-buffered saline at a concentration of 3.1×10^6 cells/ml. A 0.8-ml portion ([…]) was used for each transfection. Transfections were performed with a Bio-Rad Gene Pulser (Bio-Rad, Hercules, Calif.) with 0.4-cm electrode cuvettes (Bio-Rad). Cells were electroporated with 10 μg of SalI-linearized pUC19-3′HXB2D (SalI-XbaI fragment of pHXB2D) and 5 μg of SalI-digested SDM at 250 μF and 300 V, followed by a 30-min incubation at room temperature. Ten milliliters of fresh culture medium was then added to the suspension of transfected cells, and incubation was performed at 37° C. in a humidified atmosphere with 5% CO2. Cell cultures were monitored for the appearance of cytopathic effect (CPE). At virus breakthrough (full CPE), culture supernatant was typically harvested by centrifugation at 8 to 10 days after transfection and was stored at −80° C. for subsequent drug susceptibility determination.
as §3

Data set [2] concerns HIV-1 site-directed mutant strain Q148R. Put plainly: Assay 1: inhibitory activity on HIV replication, Q148R mutant (MT4-LTR-EGFP cells). The data set is classed as cell-based. As to conditions: Human immunodeficiency virus 1, 72 h, read-out: Q148R EC50.
Source text: as §1, §2, §4, §5, §3

Data set [3] in a line: Assay 2: cellular cytotoxic activity. The data set is classed as cell-based. To be noted: human, mock-infected MT4-CMV-EGFP cells, EGFP fluorescence. The source says: MT4-LTR-enhanced green fluorescent protein (EGFP) cells were obtained by transfecting MT4 cells with a selectable construct encompassing the coding sequences for the HIV LTR as a promoter for the expression of EGFP and subsequent selection of permanently transfected cells. MT4-cytomegalovirus (CMV)-EGFP cells were obtained by selection for permanently transformed MT4 cells with a CMV-EGFP reporter gene. Cell lines were maintained in RPMI 1640 medium supplemented with 10% heat-inactivated fetal calf serum, 2 mM L-glutamine, 0.1% NaHCO3, and antibiotics (0.02% gentamicin and 0.8% G418) and incubated in a humidified incubator with a 5% CO2 atmosphere at 37° C. Assay 2—Cellular Cytotoxic Activity The cytotoxicity of inhibitors was determined in parallel to the experiments under assay 1 on mock-infected MT4-CMV-EGFP cells (150,000 cells/ml) cultured in the presence or absence of different concentrations of compounds of formula I. After 3 days of incubation, inhibition of cell proliferation was quantified by measuring the EGFP fluorescence and expressed as the compound concentration that inhibits cell growth by 50% (CC50—see Table 1).

The next data set relates to HIV-1 LAI (IIIB). As to the kind of experiment: Assay 3: inhibitory activity on HIV replication wild type in the presence of human serum. In kind it is cell-based. To be noted: Human immunodeficiency virus 1, IIIB, 96 h; in the presence of 50% human serum, 4 days, resazurin cell viability. As for the experimental part: Assay 3—Inhibitory Activity on HIV Replication Wild Type in the Presence of Human Serum
For the Antiviral assay in the presence of 50% human serum MT-4-LTR-EGFP cells were infected with HIV-1 LAI (IIIB) at a MOI of 0.001 to 0.01 CCID50/cell in RPMI1640 medium. Following 1 h of incubation, cells were washed and plated into a 96-well plate containing serial dilutions of compound in the presence of 10% fetal calf serum (FCS), or 50% human serum. After 4 days incubation, the EC50 in the presence of 50% human serum (EC50/HS—see Table 1) was determined by a cell viability assay using resazurin (as described by Fields, R. D., and M. V. Lancaster (1993) Am. Biotechnol. Lab. 11:48-50).
A general note: Alamar Blue is a resazurin reagent that responds to reducing activity.

The target in data set [4] is recombinant HIV-1 integrase (Human immunodeficiency virus type 1 group M subtype B (isolate HXB2) (HIV-1), UniProt P04585). As to the kind of experiment: Assay 4: 3dQ assay, inhibition of HIV integrase mediated 3'-processing. The data set is classed as biochemical. The method, then: The inhibition of HIV integrase mediated 3′-processing was determined in a biochemical assay. For this a short (˜20 bp) double stranded U5 LTR substrate was generated by hybridization of 5 μM 5′-[…]-3′-alx488 (SEQ ID 1) with 7 μM dabcyl-5′-[…]-3′ (SEQ ID 2) in 10 mM Tris pH 8.0, 100 mM NaCl (heating to 95° C. and gradually cooling over 30′ to RT). Integrase inhibition was determined by incubation of 150 nM recombinant HIV-1 integrase, 100 nM recombinant LEDGF and 50 nM U5 LTR substrate in reaction buffer (25 mM MOPS pH7.2, 10 mM DTT, 10 mM MgCl2, 15 mM potassium glutamate and 2.5% DMSO) in the presence or absence of different concentrations test compounds. After 2 h at 37° C. reactions were stopped by adding ⅕ volumes of 0.5% SDS and fluorescence was measured (excitation at 488 nm, emission at 538 nm) and expressed as the inhibitor concentration required for 50% inhibition of the HIV integrase (IC50—see Table 1).

Setting [5] is: 3'-processing, 150 nM integrase, 100 nM LEDGF, 50 nM U5 LTR substrate, 2 h at 37° C., read-out: IC50.

A word on the pEC50: it is −log10 of the EC50, conventionally taken in molar units. The term CC50 denotes the concentration giving 50% cytotoxicity. By pIC50 is commonly meant −log10 of the IC50, conventionally taken in molar units. On to `O=C1NCCCCCCNc2nc(c(O)c3ncccc23)C(=O)NCc2ccc(F)cc21` [Compound 1], for which the pEC50 is 7.77 in the data set on HIV-1 IIIB, 6.38 in data set [1], 6.46 in data set [2] and 7.46 in the data set on HIV-1 LAI (IIIB). The molecule further showed a half-maximal cytotoxic concentration (CC50) at 3 days in data set [3] of 20.7 µM. Besides, the negative-log IC50 (pIC50) in data set [4] (setting [5]) was 6.02.

For `O=C1NCCCNc2nc(c(O)c3ncccc23)C(=O)NCc2ccc(F)cc21` [Compound 2], the pEC50 is 5.05 with HIV-1 IIIB and 4.44 in data set [2]. The midpoint of cytotoxicity in data set [3], the CC50 at 3 days, lay at 61 µM. Further, the pIC50 in data set [4] was 4.17.

For the molecule `O=C1NCCCCNc2nc(c(O)c3ncccc23)C(=O)NCc2ccc(F)cc21` [Compound 3], the negative logarithm of the EC50 (pEC50) in the data set on HIV-1 IIIB was 5.97; in data set [2], 4.55. In data set [3], this molecule displayed a half-maximal cytotoxic concentration (CC50) at 3 days greater than 98 µM.

For the molecule `O=C1NCCCCCNc2nc(c(O)c3ncccc23)C(=O)NCc2ccc(F)cc21` [Compound 4], the negative-log EC50 (pEC50) in the data set with HIV-1 IIIB is 7.15; in data set [1] it was 5.72; in data set [2], 5.14; in the data set with HIV-1 LAI (IIIB), 6.89. The same molecule gave a 50% cytotoxic concentration (CC50) at 3 days in data set [3] greater than 31 µM.

On to `O=C1NCCCCCCCNc2nc(c(O)c3ncccc23)C(=O)NCc2ccc(F)cc21` [Compound 5], for which the pEC50 in the data set with HIV-1 IIIB is 7.77; in data set [1], 6.41; in data set [2], 6.36; in the data set on HIV-1 LAI (IIIB), 7.29. Besides, the CC50 at 3 days in data set [3] amounted to 7.7 µM. Besides, the negative logarithm of the IC50 (pIC50) in data set [4] (setting [5]) is 6.00.

Turning to `CN1c2nc(c(O)c3ncccc23)C(=O)NCc2ccc(F)cc2C(=O)NCCCCCS1(=O)=O` [Compound 6], the negative logarithm of the EC50 (pEC50) in the data set on HIV-1 IIIB was 8.40; in data set [1] it was 7.08; in data set [2] it was 8.10; with HIV-1 LAI (IIIB), 8.52. In data set [3], the 50% cytotoxic concentration (CC50) at 3 days was determined as 27.7 µM. Moreover, the negative logarithm of the IC50 (pIC50) in data set [4] (setting [5]) is 6.60.

Turning to `CN1c2nc(c(O)c3ncccc23)C(=O)NCc2ccc(F)cc2C(=O)NCCCCS1(=O)=O` [Compound 7], the pEC50 with HIV-1 IIIB was 8.40; in data set [1], 6.59; in data set [2], 7.70; with HIV-1 LAI (IIIB), 8.52. The 50% cytotoxic concentration (CC50) at 3 days in data set [3] was determined as 13.3 µM. The pIC50 in data set [4] (setting [5]) was 6.44.

For the molecule `O=C1NCCCCN2CCN(CC2)c2nc(c(O)c3ncccc23)C(=O)NCc2ccc(F)cc21` [Compound 8], the negative-log EC50 (pEC50) was 7.74 in the data set with HIV-1 IIIB, 5.72 in data set [1], 6.07 in data set [2] and 7.74 in the data set on HIV-1 LAI (IIIB). In data set [3], this molecule came in with a cytotoxic concentration (CC50) at 3 days of 3.1 µM. Besides, in data set [4] (setting [5]), the pIC50 is 5.92.

In the case of `O=C1NCCCN2CCN(CC2)c2nc(c(O)c3ncccc23)C(=O)NCc2ccc(F)cc21` [Compound 9], the negative-log EC50 (pEC50) with HIV-1 IIIB is 7.77; in data set [1], 5.82; in data set [2], 6.34; in the data set on HIV-1 LAI (IIIB), 7.60. The molecule also yielded a CC50 at 3 days in data set [3] of 43 µM. The negative logarithm of the IC50 (pIC50) in data set [4] (setting [5]) is 5.80.

With `O=C1NCc2ccc(F)cc2OCCCCC(=O)N2CCN(CC2)c2nc1c(O)c1ncccc21` [Compound 10], the negative-log EC50 (pEC50) is 8.52 in the data set with HIV-1 IIIB, 6.96 in data set [1], 7.41 in data set [2] and 7.57 in the data set on HIV-1 LAI (IIIB). In data set [3], this molecule showed a CC50 at 3 days greater than 24 µM.

`CN1c2nc(c(O)c3ncccc23)C(=O)NCc2ccc(F)cc2OCCCCS1(=O)=O` [Compound 11]: the negative logarithm of the EC50 (pEC50) in the data set on HIV-1 IIIB was 8.30; in data set [1], 6.51; in data set [2], 7.62; in the data set on HIV-1 LAI (IIIB), 7.80. Also, in data set [3], the half-maximal cytotoxic concentration (CC50) at 3 days is greater than 24 µM.

For `CN1c2nc(c(O)c3ncccc23)C(=O)NCc2ccc(F)cc2OCCCCCS1(=O)=O` [Compound 12], the pEC50 in the data set on HIV-1 IIIB is 9.00; in data set [1], 6.77; in data set [2], 7.92; in the data set with HIV-1 LAI (IIIB) it was 7.40. In data set [3], this molecule showed a 50% cytotoxic concentration (CC50) at 3 days greater than 98 µM. Moreover, in data set [4] (setting [5]), the pIC50 was 6.70.
